Results: patent US20150087610A1, “Method of Modifying Fertility” (Monell Chemical Senses Center, priority 2012, published 2015)
“Also recorded” adds a separate entry of the source.

Assays:
[1] = system: sperm isolated from the Gnat3−/−mutant mice; test: Calcium imaging of sperm from Gnat3−/− mutant mice; format: cell-based, mouse; details: 2 mM
Procedure: (§1) Eight adult male mice of each genotype: C57BL/6 and Gnat^−/− mice, were sacrificed, and the testis and caudal epididymis were immediately removed and transferred into HS solution containing (mM): 135 NaCl, 5 KCl, 2 CaCl2, 1 MgCl2, 30 Hepes, 10 glucose, 10 lactic acid, and 1 pyruvic acid (pH adjusted to 7.4 with NaOH) (Xia et al., 2007). For isolation of spermatids, seminiferous tubules from mouse testicle were dissected out and placed in a […] containing 3 ml of HS medium. The tissue was finely minced and gently triturated with a fire-polished pipette, and the mixture was filtered with a 100 μm nylon cell strainer (BD Falcon, Bedford, Mass.). The dissociated cells were collected in a 1.5 ml plastic tube, and washed once in HS medium by centrifugation at 300 g for 4 min and resuspended in HS medium.
(§2) For isolation of epididymal spermatozoa, three incisions were made to the caudal epididymis, which was incubated in a 1.5-ml tube containing 1 ml of HS medium and 5 mg/ml bovine serum albumin (BSA) in a 5% CO2 incubator at 37° C. for 20 minutes (Xia et al., 2007). Sperm cells released into the medium were collected from top 0.1 ml, which were adjusted to 1×10^7 cells/ml HS medium.
(§3) Mouse spermatogenic cells were loaded with 5 μM acetoxymethylester of Fura-2 (Fora-2/AM) and 80 μg/ml pluronic F127 (Molecular Probes, Eugene, Oreg.) and transferred onto coverslips (22×60 mm, No. 0, Thomas Scientific Co.) for at least 1 hour at room temperature. The coverslip with spermatogenic cells was mounted in a recording chamber and superfused with HS or HS containing tasting compounds or the bitter blocker probenecid (Sigma-Aldrich, St. Louis, Mo.) via a valve controller (VC-8, Warner, USA).
(§4) Imaging of calcium responses was conducted as previously described (Gomez et al, 2005). Stimulation duration was 30 seconds and perfusion rate was 0.8 ml/min. Cells were excited at 340 nm and 380 nm and signals at 510 nm were captured by a cooled CCD camera. The change in fluorescence ratio (F=F340/F380) was recorded for regions-of-interest drawn on the cells.

mouse spermatids = test: Calcium imaging of mouse spermatids with bitter tastants; format: cell-based; details: for cells responding with increased intracellular calcium: 29 cells; for calcium response in the principal piece: compared with acrosome and midpiece; for increase in intracellular calcium, acrosome versus midpiece: subcellular areas; for number of cells responding: out of 29 cells
Procedure: as §1, §3, §4
(§5) To analyze the dose-dependent calcium responses, the response intensity (FN) was normalized and expressed as ΔF/F0 value: ΔF/F0=(F−F0)/F0. Here F0 is the fluorescence at the beginning of stimulation, i.e., time 0, and F is the peak fluorescence ratio evoked by the stimulation. Dose-response curves and EC50 values were generated based on the normalized responses using the software Origins by nonlinear regression.

epididymal sperm cells = test: Calcium imaging of mouse epididymal sperm cells with bitter tastants; format: cell-based; details: for calcium responses from the principal pieces / # CELLS RESPONDED / amplitudes of the responses from the acrosome and midpiece: epididymal sperm; for cells responding with calcium responses: 49 cells; for amplitudes of the responses from the acrosome and midpiece: subcellular areas
Procedure: as §2, §3, §4, §5

human Tas2r38 = human Tas2r38 (Homo sapiens, UniProt P59533); details: cited from earlier work
C57B/6L wild-type sperm = test: Bitter blocker probenecid on calcium responses of wild-type mouse sperm; format: cell-based; details: 300 μM PTC alone
Procedure: as §3, §4
To confirm whether the germ cells' responses to bitter tastants were mediated by the bitter taste receptors, we examined the effect of the bitter taste receptor blocker probenecid (Greene et al, 2001) and nullification of the α-gustducin gene in Gnat3 α-gustducin knockout mice described in Wong et al, 1996. Probenecid is known to inhibit the responses of human T2R16, 38 and 43 to salicin, PTC and PROP, and aloin, but not that of T2R31 to saccharin (Greene et al, 2011).

[2] = spermatids, response profile 1, total 29 cells
[3] = spermatids, response profile 3, total 29 cells
[4] = spermatids, response profile 5, total 29 cells
[5] = FIG. 6, epididymal sperm Cell 1
[6] = FIG. 6, epididymal sperm Cell 3
[7] = FIG. 6, epididymal sperm Cell 4
[8] = response profile 1, total 49 cells
[9] = response profile 2, total 49 cells
[10] = response profile 3, total 49 cells
[11] = response profile 4, total 49 cells
[12] = response profile 5, total 49 cells
[13] = response profile 7, total 49 cells
[14] = response profile 8, total 49 cells
[15] = response profile 10, total 49 cells
[16] = spermatids, response profile 2, total 29 cells
[17] = spermatids, response profile 6, total 29 cells
[18] = response profile 6, total 49 cells
[19] = response profile 11, total 49 cells
[20] = spermatids, response profile 4, total 29 cells
[21] = FIG. 6, epididymal sperm Cell 5
[22] = response profile 9, total 49 cells

Row | Structure (SMILES) | calcium response of Gnat3−/− sperm [1] | cells responding with increased intracellular calcium (mouse spermatids; spermatids) [%] | # CELLS RESPONDED (mouse spermatids; [2]) | # CELLS RESPONDED (mouse spermatids; [3]) | calcium response of individual cell (epididymal sperm cells; [5]) | calcium response of individual cell (epididymal sperm cells; [7]) | calcium responses from the principal pieces (epididymal sperm cells) | cells responding with calcium responses (epididymal sperm cells; epididymal sperm cells) | # CELLS RESPONDED (epididymal sperm cells; [8]) | # CELLS RESPONDED (epididymal sperm cells; [9]) | # CELLS RESPONDED (epididymal sperm cells; [10]) | # CELLS RESPONDED (epididymal sperm cells; [11]) | # CELLS RESPONDED (epididymal sperm cells; [12]) | # CELLS RESPONDED (epididymal sperm cells; [13]) | # CELLS RESPONDED (epididymal sperm cells; [14]) | amplitudes of the responses from the acrosome and midpiece (epididymal sperm cells) | calcium response in the principal piece (mouse spermatids; spermatids) | # CELLS RESPONDED (mouse spermatids; [16]) | increase in intracellular calcium, acrosome versus midpiece (mouse spermatids; spermatids) | # CELLS RESPONDED (epididymal sperm cells; [18]) | other results
1 | Nc1ncnc2c1ncn2[C@@H]1O[C@H](COP(=O)(O)OP(=O)(O)OP(=O)(O)O)[C@@H](O)[C@H]1O [ATP] | normal; also recorded: did respond |  |  |  |  |  |  |  |  |  |  |  |  |  |  |  |  |  |  |  | 
2 | CCCc1cc(=O)[nH]c(=S)[nH]1 [PROP, 6-propyl-2 thiouracil] | unresponsive; also recorded: did not respond | 27.6 | 3 | 1 | responded | responded weakly | mostly undetectable | about 61.2% | 4 | 13 | 1 | 1 | 4 | 1 | 1 | equally strong |  |  |  |  | EC50 (mouse spermatids; mouse spermatids, Fura-2 calcium imaging, normalized ΔF/F0, read-out: EC50 of calcium response): 24 ± 12 µM; # CELLS RESPONDED (mouse spermatids; [4]): 1; # CELLS RESPONDED (mouse spermatids; spermatids, response profile 9, total 29 cells): 3; calcium response at low concentrations (mouse spermatids; spermatids, 0.01, 0.1 and 1 μM): No responses; calcium response of individual cell (epididymal sperm cells; [6]): weakly; # CELLS RESPONDED (epididymal sperm cells; [15]): 5; EC50 (human Tas2r38; four responding variants of the receptor): 2 to 4 µM; response of receptor variants (human Tas2r38; two of six variants): unresponsive
3 | NC(=S)Nc1ccccc1 [PTC, N-phenylthiourea] | unresponsive; also recorded: did not respond |  | 3 | 1 | responded |  | mostly undetectable |  | 4 | 13 |  | 1 |  | 1 | 1 | equally strong | detectable but much smaller | 1 | much larger in the acrosome than in the midpiece | 1 | # CELLS RESPONDED (mouse spermatids; [17]): 1; # CELLS RESPONDED (mouse spermatids; spermatids, response profile 10, total 29 cells): 3; # CELLS RESPONDED (epididymal sperm cells; [19]): 1; increase in the intracellular calcium concentration (C57B/6L wild-type sperm): significant
4 | C[C@@H]1C[C@@H]([C@H](O)CC2CC(=O)NC(=O)C2)C(=O)[C@@H](C)C1 [cycloheximide] | did not respond | 62.1 | 3 | 1 | responded | responded weakly | mostly undetectable | 93.9% | 4 | 13 | 1 | 1 | 4 | 1 |  | equally strong |  | 1 |  | 1 | number of cells responding (mouse spermatids; spermatids): 18; # CELLS RESPONDED (mouse spermatids; [20]): 7; # CELLS RESPONDED (mouse spermatids; [4]): 1; # CELLS RESPONDED (mouse spermatids; spermatids, response profile 7, total 29 cells): 5; calcium response of individual cell (epididymal sperm cells; FIG. 6, epididymal sperm Cell 2): responded only; calcium response of individual cell (epididymal sperm cells; [6]): responded; calcium response of individual cell (epididymal sperm cells; [21]): responded weakly; number of cells responding (epididymal sperm cells; epididymal sperm cells, out of 49 cells): 46; # CELLS RESPONDED (epididymal sperm cells; [22]): 1; # CELLS RESPONDED (epididymal sperm cells; [15]): 5; # CELLS RESPONDED (epididymal sperm cells; response profile 12, total 49 cells): 15; calcium response of Gnat3−/− sperm ([1]; listed as cyclohexmide): unresponsive
5 | CC[N+](CC)(CC(=O)Nc1c(C)cccc1C)Cc1ccccc1 [denatonium] | unresponsive; also recorded: did not respond | 55.2 | 3 |  | responded | responded weakly | mostly undetectable | ~53.1% | 4 | 13 | 1 |  | 4 |  | 1 | equally strong | detectable but much smaller | 1 | much larger in the acrosome than in the midpiece | 1 | # CELLS RESPONDED (mouse spermatids; [20]): 7; # CELLS RESPONDED (mouse spermatids; [17]): 1; # CELLS RESPONDED (mouse spermatids; spermatids, response profile 8, total 29 cells): 4; calcium response of individual cell (epididymal sperm cells; [21]): responded weakly; # CELLS RESPONDED (epididymal sperm cells; [22]): 1; # CELLS RESPONDED (epididymal sperm cells; [19]): 1
6 | CCN(CC)CCNC(=O)c1ccc(N)cc1 [procainamide] |  |  |  |  |  |  |  |  |  |  |  |  |  |  |  |  | detectable but much smaller |  | much larger in the acrosome than in the midpiece |  | 
7 | OCc1ccccc1O[C@@H]1O[C@H](CO)[C@@H](O)[C@H](O)[C@H]1O [salicin] | unresponsive; also recorded: did not respond |  |  |  |  |  |  | about 14.3% | 4 |  | 1 | 1 |  |  |  |  |  |  |  |  | number of cells responding (mouse spermatids; spermatids): No spermatids were found to respond; frequency of responsive cells (epididymal sperm cells; FIG. 6, epididymal sperm): rare; # CELLS RESPONDED (epididymal sperm cells; response profile 13, total 49 cells): 1
